Experimental data as given in patent US9481662B2, “Seriniquinones, melanoma-specific anticancer agents” (The Regents of the University of California, priority 2012, dated 2016).

What was measured:
[1] = system: HCT-116 cells; assay: Confocal microscopy subcellular localization; format: cell-based, human; details: confocal imaging with counterstains
Protocol: Confocal studies were conducted on a LSM 710 inverted confocal microscope (Zeiss) with scanning module with 3 detection channels, Plan-Apochromat 63×/1.4 na objective, diode laser (405 nm, CW pulsed, 30 mW), Ar-laser (458 nm, 488 nm, 514 nm, 25 mW), HeNe-laser (543 nm, 1 mW) and HeNe-laser (633 nm, 5 mW). For all procedures, cells were seeded 24 h prior to treatment, to allow for adequate attachment to the well or flask bottom. Cells were plated in glass-bottom dishes (MatTek Corporation) for microscopic analyses at 1×10^5 cells/mL. Compounds were added to cells under 1 mL of media from […] such that the DMSO content remained under 0.1%. […]
Colocalization studies were conducted by treating cells (HCT-116 or MALME-3M) at a density of 1×10^5 cells/cm^2 in a 35 mm glass-bottom dish (MatTek Corporation). […] After 30 min, cells were washed PBS (4×1 mL) and immediately analyzed by confocal microscope. […] The localization of seriniquinone (1) was acquired by red fluorescence with emission at 550-631 nm, while the ER-tracker was acquired by blue florescence with emission at 406-450 nm. […] After 15 min, cells were washed PBS (4×1 mL) and immediately analyzed by confocal microscope. […] The localization of seriniquinone (1) was acquired by red fluorescence with emission at 550-631 nm, while the ER-tracker was acquired by blue florescence with emission at 415-530 nm.

[2] = system: HCT-116 cells; assay: Cytotoxicity analysis (MTT/MTS) in HCT-116 colon carcinoma cells; format: cell-based, human; details: Homo sapiens; HCT-116 cells; read-out: IC50
Text: Fortunately, 1 was fluorescent with excitation maxima at 250 nm (ε=20,800 cm^−1M^−1), 289 nm (ε=24,000 cm^−1M^−1) and 342 nm (ε=6900 cm^−1M^−1) and a broad emission from 490-680 nm. Using confocal microscopy, red and green fluorescence from 1 appeared in HCT-116 cells within minutes of addition (FIG. 3A). […] Time course confocal imaging studies were then combined with conventional activity MTT assays^6 to provide a detailed correlation between cellular localization and cytostatic activity.
HCT-116 colon carcinoma cells were plated in 96-well plates at 2.5×10^4 cells/well. After 24 h, the cultures were treated with a single concentration seriniquinone (1) within the range of 0.02-20.0 μM, etoposide (positive control) in the range of 0.05-50 μM or 1% DMSO (negative control). The cells were incubated for either 24 h, 48 h or 72 h. At the end of the incubation period, cultures were added with 3-(4,5-dimethylthiazol-2-yl)-5-(3-carboxymethoxyphenyl)-2-(4-sulfophenyl)-2H-tetrazolium (MTS) for 3 h. Cell viability was quantified by the ability of living cells to reduce the yellow MTS dye to a purple formazan product. Time course experiments were also conducted in HCT-116 cells. Cells were exposed to 1 over short periods (1 h, 3 h, 6 h, and 9 h) followed by incubation in drug-free media to complete a total of 24 h incubation before addition of MTS.

[3] = system: DCD-1L; assay: Covalent labeling of DCD-1L peptide (fluorescent band on SDS-PAGE); format: binding, human; details: 50 μM, PBS pH 7.2, 5% DMSO, 23° C., 24 h (FIG. 5E)
Text: FIGS. 5A-5E: Seriniquinone (1) targets dermcidin (DCD). […] Sequence listing (FIG. 5B): […] (SEQ ID NO:3); […] (SEQ ID NO:4).
The reactivity between 1 and DCD was then examined. […] These studies now provided initial support for the formation of a unique trimeric covalent adduct, compound 15, between 1, DCD and targeted proteins such as GADPH.

[4] = biological target: T1, dermcidin (DCD) (Homo sapiens, UniProt P81605); assay: Immunoprecipitation with IAF probe and LC-MS/MS target identification; format: binding; details: HCT-116 cell lysates, iodoacetamide treatment
T1 construct: endogenous in cells; host or cells: HCT-116 cell lysate
T1 sequence (P81605 20-110): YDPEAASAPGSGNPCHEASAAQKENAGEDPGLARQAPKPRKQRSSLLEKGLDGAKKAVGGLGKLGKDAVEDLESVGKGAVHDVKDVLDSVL
Protocol: Using established protocols,^13 HCT-116 cell lysates were treated for 8 h with probe 13 and immunoprecipitated with resins bearing a covalently-attached anti-IAF mAb.^14 Over multiple repetitions, a series of proteins ranging from 30-250 kDa were obtained in a manner dependent on the concentration probe 13 (FIG. 5A). […] Trypsin digestion coupled with LC-MS/MS analyses was then applied to identify the proteins in the more abundant bands. […] In addition to peptides from GADPH, peptides were also found in the 50 kDa band (b1, FIG. 5A) that corresponded to the 30 aa PIF core, 13 aa propeptide, and 47 aa DCD-1 peptide region of dermcidin (DCD) (FIG. 5B).
Interested if this was the case in this experimentation, the immunoprecipitated fractions were treated with 5 mM iodoacetamide prior to gel analysis. As indicated (Lane L1, FIG. 5C), a low molecular weight band corresponding to DCD appeared.
An 1 mg/mL stock of probe 14a/14b in DMSO solution was added to 1 mL of cell lysate containing ˜1 mg/mL in net protein to provide a net concentration of 3 μM 14a/14b or 30 μM 14a/14b. […]
Silver Stained bands were excised from the polyacrylamide gel and destained. […] General procedure was using in-gel trypsin digest and then the trypsin-digested peptides were analyzed by liquid chromatography LC-MS/MS with electrospray ionization. […]

For CN(C)c1ccc2c(CC(=O)NCCCCCCNC(=O)CCc3ccc4c(=O)c5c(sc6c(=O)c7ccccc7c(=O)c65)c(=O)c4c3)cc(=O)oc2c1 [Probe 13, N-(6-(2-(7-(dimethylamino)-2-oxo-2H-chromen-4-yl)acetamido)hexyl)-3-(5,7,12,13-tetraoxo-5,7,12,13-tetrahydrodinaphtho[2,3-b:2′,3′-d]thiophen-3-yl)propanamide], which subcellular localization [1] is on record?
Its subcellular localization is “rapid uptake in the ER followed by transport into autophagosomes”.

And the IC50 [2]?
Its IC50 is 250 ± 80 nM.

And the “fluorescent labeling of DCD-1L fragment” value [3]?
The value was “fluorescent bands corresponding to DCD-1L”.

And the “protein target identified by immunoprecipitation” value [4]?
Its value is “DCD was indeed a primary target”.
